# According to US10792289B2 (Horizon Orphan LLC, priority 2009, dated 2020):
# Where two headings read alike, the source gives them in different places.
# Test system: P. aeruginosa isolates
# Test: Phase 2 study: MIC of P. aeruginosa isolates to levofloxacin
# Type: cell-based
# Conditions: Pseudomonas aeruginosa
# Procedure: Efficacy was evaluated by microbiologic assessment of sputum samples, time to need for anti-pseudomonal antimicrobials, the Cystic Fibrosis Questionaire-Revised (CFQ-R), and pulmonary function tests. […] Pair-wise comparisons between all the treatment arms were conducted as secondary analyses.
structure (smiles),measurement,setting,value
"C[C@H]1COc2c(N3CCN(C)CC3)c(F)cc3c(=O)c(C(=O)O)cn1c23 [Levofloxacin, levofloxacin]",MIC50,"24 h, EE, 120 mg QD, Day 1, read-out: MIC50 (all organisms)",4 µg/mL
same,MIC90,"24 h, EE, 120 mg QD, Day 1, read-out: MIC90 (all organisms)",32 µg/mL
same,MIC50,"24 h, EE, 240 mg BID, Day 1, read-out: MIC50 (all organisms)",4 µg/mL
same,MIC90,"24 h, EE, 240 mg BID, Day 1, read-out: MIC90 (all organisms)",16 µg/mL
same,MIC50,"24 h, EE, 240 mg QD, Day 1, read-out: MIC50 (all organisms)",4 µg/mL
same,MIC90,"24 h, EE, 240 mg QD, Day 1, read-out: MIC90 (all organisms)",16 µg/mL
same,MIC50,"24 h, EE, combined 240 mg QD and BID, Day 1, read-out: MIC50 (all organisms)",4 µg/mL
same,MIC90,"24 h, EE, combined 240 mg QD and BID, Day 1, read-out: MIC90 (all organisms)",16 µg/mL
same,MIC50,"24 h, MITT, 120 mg QD, Day 1, read-out: Highest MIC, MIC50",8 µg/mL
same,MIC90,"24 h, MITT, 120 mg QD, Day 1, read-out: Highest MIC, MIC90",32 µg/mL
same,MIC50,"24 h, MITT, 120 mg QD, Day 1, read-out: MIC50 (all organisms)",4 µg/mL
same,MIC90,"24 h, MITT, 120 mg QD, Day 1, read-out: MIC90 (all organisms)",32 µg/mL
same,MIC50,"24 h, MITT, 240 mg BID, Day 1, read-out: Highest MIC, MIC50",6 µg/mL
same,MIC90,"24 h, MITT, 240 mg BID, Day 1, read-out: Highest MIC, MIC90",32 µg/mL
same,MIC50,"24 h, MITT, 240 mg BID, Day 1, read-out: MIC50 (all organisms)",4 µg/mL
same,MIC90,"24 h, MITT, 240 mg BID, Day 1, read-out: MIC90 (all organisms)",16 µg/mL
same,MIC50,"24 h, MITT, 240 mg QD, Day 1, read-out: Highest MIC, MIC50",4 µg/mL
same,MIC90,"24 h, MITT, 240 mg QD, Day 1, read-out: Highest MIC, MIC90",32 µg/mL
same,MIC50,"24 h, MITT, 240 mg QD, Day 1, read-out: MIC50 (all organisms)",4 µg/mL
same,MIC90,"24 h, MITT, 240 mg QD, Day 1, read-out: MIC90 (all organisms)",16 µg/mL
same,MIC50,"24 h, MITT, combined 240 mg QD and BID, Day 1, read-out: Highest MIC, MIC50",4 µg/mL
same,MIC90,"24 h, MITT, combined 240 mg QD and BID, Day 1, read-out: Highest MIC, MIC90",32 µg/mL
same,MIC50,"24 h, MITT, combined 240 mg QD and BID, Day 1, read-out: MIC50 (all organisms)",4 µg/mL
same,MIC90,"24 h, MITT, combined 240 mg QD and BID, Day 1, read-out: MIC90 (all organisms)",16 µg/mL
same,MIC50,"24 h, Table 14, EE, 120 mg QD, Day 1, read-out: MIC50 (all organisms)",8 µg/mL
same,MIC90,"24 h, Table 14, EE, 120 mg QD, Day 1, read-out: MIC90 (all organisms)",32 µg/mL
same,MIC50,"24 h, Table 14, EE, 240 mg BID, Day 1, read-out: MIC50 (all organisms)",6 µg/mL
same,MIC90,"24 h, Table 14, EE, 240 mg BID, Day 1, read-out: MIC90 (all organisms)",32 µg/mL
same,MIC50,"24 h, Table 14, EE, 240 mg QD, Day 1, read-out: MIC50 (all organisms)",4 µg/mL
same,MIC90,"24 h, Table 14, EE, 240 mg QD, Day 1, read-out: MIC90 (all organisms)",32 µg/mL
same,MIC50,"24 h, Table 14, EE, combined 240 mg QD and BID, Day 1, read-out: MIC50 (all organisms)",4 µg/mL
same,MIC90,"24 h, Table 14, EE, combined 240 mg QD and BID, Day 1, read-out: MIC90 (all organisms)",32 µg/mL
same,MIC50,"168 h, EE, 120 mg QD, Day 7, read-out: MIC50 (all organisms)",4 µg/mL
same,MIC90,"168 h, EE, 120 mg QD, Day 7, read-out: MIC90 (all organisms)",16 µg/mL
same,MIC50,"168 h, EE, 240 mg BID, Day 7, read-out: MIC50 (all organisms)",4 µg/mL
same,MIC90,"168 h, EE, 240 mg BID, Day 7, read-out: MIC90 (all organisms)",16 µg/mL
same,MIC50,"168 h, EE, 240 mg QD, Day 7, read-out: MIC50 (all organisms)",2 µg/mL
same,MIC90,"168 h, EE, 240 mg QD, Day 7, read-out: MIC90 (all organisms)",16 µg/mL
same,MIC50,"168 h, EE, combined 240 mg QD and BID, Day 7, read-out: MIC50 (all organisms)",4 µg/mL
same,MIC90,"168 h, EE, combined 240 mg QD and BID, Day 7, read-out: MIC90 (all organisms)",16 µg/mL
same,MIC50,"168 h, MITT, 120 mg QD, Day 7, read-out: Highest MIC, MIC50",8 µg/mL
same,MIC90,"168 h, MITT, 120 mg QD, Day 7, read-out: Highest MIC, MIC90",32 µg/mL
same,MIC50,"168 h, MITT, 120 mg QD, Day 7, read-out: MIC50 (all organisms)",4 µg/mL
same,MIC90,"168 h, MITT, 120 mg QD, Day 7, read-out: MIC90 (all organisms)",16 µg/mL
same,MIC50,"168 h, MITT, 240 mg BID, Day 7, read-out: Highest MIC, MIC50",6 µg/mL
same,MIC90,"168 h, MITT, 240 mg BID, Day 7, read-out: Highest MIC, MIC90",32 µg/mL
same,MIC50,"168 h, MITT, 240 mg BID, Day 7, read-out: MIC50 (all organisms)",4 µg/mL
same,MIC90,"168 h, MITT, 240 mg BID, Day 7, read-out: MIC90 (all organisms)",16 µg/mL
same,MIC50,"168 h, MITT, 240 mg QD, Day 7, read-out: Highest MIC, MIC50",4 µg/mL
same,MIC90,"168 h, MITT, 240 mg QD, Day 7, read-out: Highest MIC, MIC90",16 µg/mL
same,MIC50,"168 h, MITT, 240 mg QD, Day 7, read-out: MIC50 (all organisms)",4 µg/mL
same,MIC90,"168 h, MITT, 240 mg QD, Day 7, read-out: MIC90 (all organisms)",16 µg/mL
same,MIC50,"168 h, MITT, combined 240 mg QD and BID, Day 7, read-out: Highest MIC, MIC50",4 µg/mL
same,MIC90,"168 h, MITT, combined 240 mg QD and BID, Day 7, read-out: Highest MIC, MIC90",16 µg/mL
same,MIC50,"168 h, MITT, combined 240 mg QD and BID, Day 7, read-out: MIC50 (all organisms)",4 µg/mL
same,MIC90,"168 h, MITT, combined 240 mg QD and BID, Day 7, read-out: MIC90 (all organisms)",16 µg/mL
same,MIC50,"168 h, Table 14, EE, 120 mg QD, Day 7, read-out: MIC50 (all organisms)",8 µg/mL
same,MIC90,"168 h, Table 14, EE, 120 mg QD, Day 7, read-out: MIC90 (all organisms)",32 µg/mL
same,MIC50,"168 h, Table 14, EE, 240 mg BID, Day 7, read-out: MIC50 (all organisms)",4 µg/mL
same,MIC90,"168 h, Table 14, EE, 240 mg BID, Day 7, read-out: MIC90 (all organisms)",32 µg/mL
same,MIC50,"168 h, Table 14, EE, 240 mg QD, Day 7, read-out: MIC50 (all organisms)",4 µg/mL
same,MIC90,"168 h, Table 14, EE, 240 mg QD, Day 7, read-out: MIC90 (all organisms)",16 µg/mL
same,MIC90,"168 h, Table 14, EE, combined 240 mg QD and BID, Day 7, read-out: MIC90 (all organisms)",32 µg/mL
same,MIC,"168 h, read-out: Highest MIC to levofloxacin, mean (SD), MITT, 120 mg QD, Day 7",15.2 µg/mL
same,MIC,"168 h, read-out: Highest MIC to levofloxacin, mean (SD), MITT, 240 mg BID, Day 7",13 µg/mL
same,MIC,"168 h, read-out: Highest MIC to levofloxacin, mean (SD), MITT, 240 mg QD, Day 7",10.5 µg/mL
same,MIC,"168 h, read-out: Highest MIC to levofloxacin, mean (SD), MITT, combined 240 mg QD and BID, Day 7",11.8 µg/mL
same,MIC,"168 h, read-out: MIC to levofloxacin (all organisms), mean (SD), EE, 120 mg QD, Day 7",9.9 µg/mL
same,MIC,"168 h, read-out: MIC to levofloxacin (all organisms), mean (SD), EE, 240 mg BID, Day 7",8.8 µg/mL
same,MIC,"168 h, read-out: MIC to levofloxacin (all organisms), mean (SD), EE, 240 mg QD, Day 7",6.8 µg/mL
same,MIC,"168 h, read-out: MIC to levofloxacin (all organisms), mean (SD), EE, combined 240 mg QD and BID, Day 7",7.8 µg/mL
same,MIC,"168 h, read-out: MIC to levofloxacin (all organisms), mean (SD), MITT, 120 mg QD, Day 7",9.6 µg/mL
same,MIC,"168 h, read-out: MIC to levofloxacin (all organisms), mean (SD), MITT, 240 mg BID, Day 7",8.6 µg/mL
same,MIC,"168 h, read-out: MIC to levofloxacin (all organisms), mean (SD), MITT, 240 mg QD, Day 7",6.7 µg/mL
same,MIC,"168 h, read-out: MIC to levofloxacin (all organisms), mean (SD), MITT, combined 240 mg QD and BID, Day 7",7.6 µg/mL
same,MIC,"168 h, read-out: MIC to levofloxacin (all organisms), mean (SD), Table 14, EE, 120 mg QD, Day 7",15.7 µg/mL
same,MIC,"168 h, read-out: MIC to levofloxacin (all organisms), mean (SD), Table 14, EE, 240 mg BID, Day 7",13.1 µg/mL
same,MIC,"168 h, read-out: MIC to levofloxacin (all organisms), mean (SD), Table 14, EE, 240 mg QD, Day 7",10.9 µg/mL
same,MIC,"168 h, read-out: MIC to levofloxacin (all organisms), mean (SD), Table 14, EE, combined 240 mg QD and BID, Day 7",11.9 µg/mL
same,MIC50,"336 h, EE, 120 mg QD, Day 14, read-out: MIC50 (all organisms)",4 µg/mL
same,MIC90,"336 h, EE, 120 mg QD, Day 14, read-out: MIC90 (all organisms)",37 µg/mL
same,MIC50,"336 h, EE, 240 mg BID, Day 14, read-out: MIC50 (all organisms)",4 µg/mL
same,MIC90,"336 h, EE, 240 mg BID, Day 14, read-out: MIC90 (all organisms)",16 µg/mL
same,MIC50,"336 h, EE, 240 mg QD, Day 14, read-out: MIC50 (all organisms)",4 µg/mL
same,MIC90,"336 h, EE, 240 mg QD, Day 14, read-out: MIC90 (all organisms)",16 µg/mL
same,MIC50,"336 h, EE, combined 240 mg QD and BID, Day 14, read-out: MIC50 (all organisms)",4 µg/mL
same,MIC90,"336 h, EE, combined 240 mg QD and BID, Day 14, read-out: MIC90 (all organisms)",16 µg/mL
same,MIC50,"336 h, MITT, 120 mg QD, Day 14, read-out: Highest MIC, MIC50",8 µg/mL
same,MIC90,"336 h, MITT, 120 mg QD, Day 14, read-out: Highest MIC, MIC90",32 µg/mL
same,MIC50,"336 h, MITT, 120 mg QD, Day 14, read-out: MIC50 (all organisms)",6 µg/mL
same,MIC90,"336 h, MITT, 120 mg QD, Day 14, read-out: MIC90 (all organisms)",32 µg/mL
same,MIC50,"336 h, MITT, 240 mg BID, Day 14, read-out: Highest MIC, MIC50",6 µg/mL
same,MIC90,"336 h, MITT, 240 mg BID, Day 14, read-out: Highest MIC, MIC90",32 µg/mL
same,MIC50,"336 h, MITT, 240 mg BID, Day 14, read-out: MIC50 (all organisms)",4 µg/mL
same,MIC90,"336 h, MITT, 240 mg BID, Day 14, read-out: MIC90 (all organisms)",16 µg/mL
same,MIC50,"336 h, MITT, 240 mg QD, Day 14, read-out: Highest MIC, MIC50",8 µg/mL
same,MIC90,"336 h, MITT, 240 mg QD, Day 14, read-out: Highest MIC, MIC90",16 µg/mL
same,MIC50,"336 h, MITT, 240 mg QD, Day 14, read-out: MIC50 (all organisms)",4 µg/mL
same,MIC90,"336 h, MITT, 240 mg QD, Day 14, read-out: MIC90 (all organisms)",16 µg/mL
same,MIC50,"336 h, MITT, combined 240 mg QD and BID, Day 14, read-out: Highest MIC, MIC50",8 µg/mL
same,MIC90,"336 h, MITT, combined 240 mg QD and BID, Day 14, read-out: Highest MIC, MIC90",32 µg/mL
